Measured values as given in patent US8338422B2, “Indolin-2-ones and aza-indolin-2-ones” (Janssen Pharmaceutica NV, priority 2007, dated 2012).
“And” between values parts separate entries of the source, which are not always exact repeats. Equal values may be shown once.

Assays:
CDK1/CyclinB (h) = CDK1/CyclinB (h) (Homo sapiens, UniProt P06493); assay: CDK1/CyclinB human kinase assay (FRET); format: biochemical; details: for IC50: read-out: CDK1 pIC50 (converted)
Procedure: (§1) The in vitro inhibition of a panel of kinases was assessed using either the scintillation proximity assay (SPA) as described by Cook, N. D. et al., Advances in Experimental Medicine and Biology (1991), 36; p. 525-528; or the Fluorescence Resonance Energy Transfer (FRET) technology as described by Rodems, S. M. et al., Assay Drug Develop. Technol. (2002), 1; p. 9-19.
In the FRET technology the activity of the kinase of interest is measured using an appropriate substrate that is labeled with two fluorophores (coumarin and fluorescein). Phosphorylation is determined using a developing reagent comprising a protease that recognizes and cleaves nonphosphorylated peptides. Cleavage will disturb the FRET between the fluorescein and coumarin on the peptide. Uncleaved, phosphorylated peptides maintain the FRET signal. A ratiometric readout of the donor emission over the acceptor emission quantitates the reaction process.
(§2) All kinases are pre-diluted to a 10× working concentration prior to addition into the assay. The composition of the dilution buffer for each kinase is detailed below.
In a final reaction volume of 10 μl, CDK1/CyclinB (h) (0.2 μg/ml) is incubated with 50 mM Hepes pH 7.5, 10 mM MgCl2, 1 mM EGTA, 0.01% Brij-35, 2 μM Z'lyte Ser/Thr peptide 12 and 10 μM ATP (Invitrogen's FRET assay). After incubation of 60 minutes at room temperature, the reaction is stopped by addition of 5 μL development reagent containing protease mix. After 60 minutes room temperature the development reaction is stopped by adding 5 μl stop solution. The plate is then read in fluorescence plate reader with excitation: 390 nm and dual emission: 460 and 538 nm. Emission ratio is determined to the formula=Emission signal intensity at 460 nm/Emission signal intensity at 538 nm.

PLK4 (h) = PLK4 (h) (Homo sapiens, UniProt O00444); assay: PLK-4 human kinase assay (SPA); format: biochemical; details: for IC50: read-out: PLK4 pIC50 (converted)
Chain of PLK4 (h) (O00444 whole entry): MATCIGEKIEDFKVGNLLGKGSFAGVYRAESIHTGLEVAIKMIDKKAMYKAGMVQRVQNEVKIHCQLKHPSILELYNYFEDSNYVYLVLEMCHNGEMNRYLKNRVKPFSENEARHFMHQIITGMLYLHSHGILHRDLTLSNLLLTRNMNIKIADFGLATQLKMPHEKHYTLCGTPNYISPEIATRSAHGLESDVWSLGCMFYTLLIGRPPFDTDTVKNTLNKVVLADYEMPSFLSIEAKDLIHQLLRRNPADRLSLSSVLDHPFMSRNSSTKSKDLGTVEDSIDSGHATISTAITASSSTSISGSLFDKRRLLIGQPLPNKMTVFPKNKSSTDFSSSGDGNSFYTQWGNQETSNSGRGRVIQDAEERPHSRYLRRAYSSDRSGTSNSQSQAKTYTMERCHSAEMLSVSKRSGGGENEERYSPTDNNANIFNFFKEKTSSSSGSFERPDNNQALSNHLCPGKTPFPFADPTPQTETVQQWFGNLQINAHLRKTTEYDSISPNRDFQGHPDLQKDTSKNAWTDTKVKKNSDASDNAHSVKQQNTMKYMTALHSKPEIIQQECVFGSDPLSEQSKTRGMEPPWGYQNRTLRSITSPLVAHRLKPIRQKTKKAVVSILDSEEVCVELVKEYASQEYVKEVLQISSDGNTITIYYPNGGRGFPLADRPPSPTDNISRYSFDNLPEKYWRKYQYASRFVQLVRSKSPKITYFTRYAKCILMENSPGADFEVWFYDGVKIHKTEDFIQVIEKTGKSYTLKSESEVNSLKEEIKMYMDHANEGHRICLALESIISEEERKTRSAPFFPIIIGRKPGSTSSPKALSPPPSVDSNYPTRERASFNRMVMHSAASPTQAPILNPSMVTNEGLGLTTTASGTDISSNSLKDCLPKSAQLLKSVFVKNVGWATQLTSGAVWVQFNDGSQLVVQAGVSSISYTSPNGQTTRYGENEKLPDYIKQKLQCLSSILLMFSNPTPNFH
Procedure: as §1
(§3) In the SPA technology the activity of the kinase of interest is measured using an appropriate biotinylated substrate that is incubated with the aforementioned kinase protein in the presence of (^33P) radiolabeled ATP. (^33P) Phosporylation of the substrate is subsequently measured through binding of the phosphorylated substrate to streptavidine coated beads that are based on the scintillant poly(vinyl toluene) (PVT-Beads). The scintillation intensity is detected by imaging on Leadseeker.
as §2
In a final reaction volume of 30 μl PLK4 (h) (19 μg/ml) is incubated with 50 mM Hepes pH 8.0, 10 mM MgCl2, 50 mM NaCl, 1 mM NaF, 1 mM DTT, 10 μM of peptide Biotin-RPRGQRDSSYYWE-OH, 1 μM ATP and 2 nM [γ-^33P-ATP] (6.0 μCi/ml). After incubation of 60 minutes at room temperature, the reaction is stopped by addition of 40 μl, of stop solution containing 8.7 mM EDTA, BSA 0.17%, 0.17% Triton X-100, 1.7 mg/ml SPA beads (GE-healthcare). The plate is centriguged and read for Scintillation imaging on Leadseeker.

AuroraB (h) = AuroraB (h) (Homo sapiens, UniProt Q96GD4); assay: Aurora-B human kinase assay (SPA); format: biochemical; details: for IC50: read-out: AuroraB pIC50 (converted)
Chain of AuroraB (h) (Q96GD4 whole entry): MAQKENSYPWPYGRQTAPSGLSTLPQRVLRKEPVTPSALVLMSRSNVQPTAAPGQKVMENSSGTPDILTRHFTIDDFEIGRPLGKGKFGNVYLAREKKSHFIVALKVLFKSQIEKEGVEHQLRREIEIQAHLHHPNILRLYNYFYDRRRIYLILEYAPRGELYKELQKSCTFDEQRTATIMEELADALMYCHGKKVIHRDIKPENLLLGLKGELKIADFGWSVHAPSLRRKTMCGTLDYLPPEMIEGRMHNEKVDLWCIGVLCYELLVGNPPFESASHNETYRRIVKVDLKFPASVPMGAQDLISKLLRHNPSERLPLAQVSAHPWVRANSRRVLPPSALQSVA
Procedure: as §1, §3, §2
In a final reaction volume of 30 μl, AuroraB (h) (0.5 μg/ml) is incubated with 60 mM Hepes pH 7.5, 3 mM MgCl2, 3 mM MnCl2, 3 μM Na3VO4, 0.05 mg/ml PEG, 2 mM DTT, 3 μM Biotin-[…]-OH, 0.5 μM ATP and 2.2 nM [γ-^33P-ATP] (6.8 μCi/ml). After incubation of 60 minutes at room temperature, the reaction is stopped by addition of 40 μL of stop solution containing 8.7 mM EDTA, BSA 0.17%, 0.17% Triton X-100, 5 mg/ml SPA beads (GE-healthcare). The plate is centriguged and read for Scintillation imaging on Leadseeker.

PC-3 = assay: Cellular proliferation assay (Alamar blue), PC-3; format: cell-based; details: PC-3 cells, 72 hours with compound, 10% FCS; for IC50: Homo sapiens, PC-3, 72 h, read-out: pIC50 PC-3 (converted)
Procedure: (§4) […] functional properties of these compounds was tested in cellular proliferation assays on a panel of different cell lines in the presence of 10% FCS serum (37° C. and 5% (v/v) CO2). In a first step these cells were seeded and incubated for 24 hours in the absence of compound. In the second step the cells were incubated for 72 hours with the compounds to be tested for 72 hours. The viable cell number was finally assessed in a standard Alamar blue cell viability assay.
(§5) The viable cell number was assessed by incubation for either 4 h (HCT-116, H1299, H460) 6 h (SKOV3, HT29, U87-MG, Colo205) or 24 h (A2780, PC3, MDA-MB-231, A549, MCF-7) with Alamar blue (Resazurin 9 μg/ml, K-Ferrocyanide 90 μM K-Ferricyanide 90 μM) and the converted fluorescent product was quantified on a fluorescent plate readed (544 nm/590 nm). Effect of the compounds is calculated as of on control cells.

A2780 = assay: Cellular proliferation assay (Alamar blue), A2780; format: cell-based; details: A2780 cells, 72 hours with compound, 10% FCS; for IC50: Homo sapiens, A2780, 72 h, read-out: pIC50 A2780 (converted)
Procedure: as §4, §5

U87MG = assay: Cellular proliferation assay (Alamar blue), U87MG; format: cell-based; details: U87MG cells, 72 hours with compound, 10% FCS; for IC50: Homo sapiens, U-87 MG, 72 h, read-out: pIC50 U87MG (converted)
Procedure: as §4, §5

GSK3β (h) = GSK3β (h) (Homo sapiens, UniProt P49841); assay: GSK-3β human kinase assay (SPA); format: biochemical; details: for IC50: read-out: GSK3B pIC50 (converted)
Chain of GSK3β (h) (P49841 whole entry): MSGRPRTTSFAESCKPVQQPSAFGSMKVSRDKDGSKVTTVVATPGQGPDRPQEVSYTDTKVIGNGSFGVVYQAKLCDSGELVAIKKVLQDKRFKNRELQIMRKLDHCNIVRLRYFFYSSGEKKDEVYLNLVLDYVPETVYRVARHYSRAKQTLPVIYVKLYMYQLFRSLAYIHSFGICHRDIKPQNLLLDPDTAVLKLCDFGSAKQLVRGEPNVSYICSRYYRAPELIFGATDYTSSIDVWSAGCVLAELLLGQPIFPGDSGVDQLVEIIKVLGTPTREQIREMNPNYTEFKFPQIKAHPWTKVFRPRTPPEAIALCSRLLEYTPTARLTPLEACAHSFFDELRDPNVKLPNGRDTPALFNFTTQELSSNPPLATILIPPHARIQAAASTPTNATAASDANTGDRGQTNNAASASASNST
Procedure: as §1, §3, §2
In a final reaction volume of 30 μl, GSK3β (h) (1 μg/ml) is incubated with 25 mM Tris pH 7.4, 10 mM MgCl2, 1 mM DTT, 1 μM peptide Biotin-KRREILSRRPSYR-OH, 1 μM ATP and 2 nM [γ-^33P-ATP] (6.0 μCi/ml). After incubation of 60 minutes at room temperature, the reaction is stopped by addition of […] of stop solution containing 8.7 mM EDTA, BSA 0.17%, 0.17% Triton X-100, 6.25 mg/ml SPA beads (GE-healthcare). The plate is centriguged and read for Scintillation imaging on Leadseeker.

HCT-116 = assay: Cellular proliferation assay (Alamar blue), HCT-116; format: cell-based; details: HCT-116 cells, 72 hours with compound, 10% FCS; for IC50: Homo sapiens, HCT-116, 72 h, read-out: pIC50 HCT-116 (converted)
Procedure: as §4, §5

H1299 = assay: Cellular proliferation assay (Alamar blue), H1299; format: cell-based; details: H1299 cells, 72 hours with compound, 10% FCS; for IC50: Homo sapiens, NCI-H1299, 72 h, read-out: pIC50 H1299 (converted)
Procedure: as §4, §5

MDA/MB231 = assay: Cellular proliferation assay (Alamar blue), MDA/MB231; format: cell-based; details: MDA/MB231 cells, 72 hours with compound, 10% FCS; for IC50: Homo sapiens, MDA-MB-231, 72 h, read-out: pIC50 MDA/MB231 (converted)
Procedure: as §4, §5

Chain of CDK1/CyclinB (h) (P06493 whole entry): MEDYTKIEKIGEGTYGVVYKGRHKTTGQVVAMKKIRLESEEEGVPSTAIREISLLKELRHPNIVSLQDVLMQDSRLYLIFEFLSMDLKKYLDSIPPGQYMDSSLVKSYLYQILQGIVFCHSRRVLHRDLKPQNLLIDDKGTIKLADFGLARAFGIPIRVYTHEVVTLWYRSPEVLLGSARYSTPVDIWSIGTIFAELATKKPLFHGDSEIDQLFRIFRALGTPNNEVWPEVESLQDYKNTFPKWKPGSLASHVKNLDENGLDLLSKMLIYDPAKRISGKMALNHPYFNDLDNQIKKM
Chain of CDK1/CyclinB (h) (P14635 whole entry partner): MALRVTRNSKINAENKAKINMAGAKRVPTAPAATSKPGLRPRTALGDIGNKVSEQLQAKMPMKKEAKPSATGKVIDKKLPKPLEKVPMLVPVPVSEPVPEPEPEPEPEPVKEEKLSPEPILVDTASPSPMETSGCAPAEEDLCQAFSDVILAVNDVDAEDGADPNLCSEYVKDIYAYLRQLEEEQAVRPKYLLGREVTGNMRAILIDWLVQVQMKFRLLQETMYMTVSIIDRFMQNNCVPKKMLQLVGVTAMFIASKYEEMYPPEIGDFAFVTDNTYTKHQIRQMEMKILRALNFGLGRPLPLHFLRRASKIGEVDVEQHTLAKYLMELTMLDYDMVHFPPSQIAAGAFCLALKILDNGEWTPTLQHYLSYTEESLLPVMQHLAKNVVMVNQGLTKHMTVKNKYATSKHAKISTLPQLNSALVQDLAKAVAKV

IC50 (PLK4 (h)) | IC50 (A2780) [µM] | IC50 (CDK1/CyclinB (h)) [µM] | IC50 (AuroraB (h)) | IC50 (GSK3β (h)) [µM] | SMILES | other results
1.78 µM | > 10 | > 10 | 0.0513 µM | 0.0631 | CN1CCCNc2ncnc3c2/C(=C/Nc2ccc(Cl)c(c2)OCCCCC1=O)C(=O)N3 [Compound 61] | IC50 (PC-3): > 10 µM; IC50 (HCT-116): 8.71 µM; IC50 (MDA/MB231): > 10 µM; IC50 (H1299): > 10 µM
0.741 µM | – | 3.39 | > 10 µM | 0.708 | CN1CCCCC(=O)N(C)CCCNc2ncnc3c2/C(=C/Nc2ccc(N4CCOCC4)c(c2)C1)C(=O)N3 [Compound 96] | –
> 10 µM | – | > 10 | > 10 µM | 0.776 | N#Cc1ccc2cc1OCCCC(=O)N1CCN(CC1)c1ncnc3c1/C(=C/N2)C(=O)N3 [Compound 98] | –
> 10 µM | – | > 10 | > 10 µM | > 10 | CN1CCNc2ncnc3c2/C(=C/Nc2cc(cc(C(F)(F)F)c2)OCCCCC1=O)C(=O)N3 [Compound 128] | –
0.452 µM | – | > 10 | > 10 µM | 6.38 | CN1CCCCCC(=O)N(C)CCNc2ncnc3c2/C(=C/Nc2ccc(N4CCOCC4)c(c2)C1)C(=O)N3 [Compound 131] | –
0.525 µM | 1.23 | 1.55 | > 10 µM | 0.0513 | CN1CCN(c2ccc3cc2CN(C)CCCC(=O)N(C)CCCNc2ncnc4c2/C(=C/N3)C(=O)N4)CC1 [Compound 140] | IC50 (PC-3): 6.17 µM; IC50 (U87MG): 0.501 µM; IC50 (H1299): 2.63 µM
0.692 µM | – | 7.59 | > 10 µM | 0.447 | CN1CCN(c2ccc3cc2OCCCCCC(=O)N(C)CCNc2ncnc4c2/C(=C/N3)C(=O)N4)CC1 [Compound 141] | –
1.66 µM and 2.09 µM and > 10 µM | 2.45 | – | 3.39 µM and 3.55 µM and > 10 µM | – | COc1ccc2cc1OCC(=O)N[C@H](Cc1ccccc1)CN(C)CCNc1ncnc3c1/C(=C/N2)C(=O)N3 [Compound 191] | pIC50 A2780 (A2780): 5.47; pIC50 HCT-116 (HCT-116): 5.55 and 5.77; IC50 (HCT-116): 2.4 µM; IC50 (H1299): > 10 µM

Further lines, the compound ahead of its results:

SMILES | IC50 (PLK4 (h)) | IC50 (A2780) [µM] | IC50 (CDK1/CyclinB (h)) [µM] | IC50 (AuroraB (h)) | IC50 (GSK3β (h)) [µM] | other results
CN1CCN(c2ccc3cc2OCCCC(=O)N(C)CCCNc2ncnc4c2C(=CN3)C(=O)N4)CC1 (mixture of isomers) [Compound 133] | – | – | – | – | – | CDK1 pIC50 (CDK1/CyclinB (h)): 6.8; PLK4 pIC50 (PLK4 (h)): 7.21; AuroraB pIC50 (AuroraB (h)): 5.81; pIC50 PC-3 (PC-3): 5.02; pIC50 A2780 (A2780): 6.00; pIC50 U87MG (U87MG): 5.65; GSK3B pIC50 (GSK3β (h)): 6.95; pIC50 HCT-116 (HCT-116): 6.16; pIC50 H1299 (H1299): 5.17
O=C1CCCOc2cccc(c2)NC=C2C(=O)Nc3ncnc(c32)NCCCN1 (mixture of isomers) [Compound 142] | – | – | – | – | – | CDK1 pIC50 (CDK1/CyclinB (h)): 6.83; PLK4 pIC50 (PLK4 (h)): 7.3; AuroraB pIC50 (AuroraB (h)): 6.93; pIC50 PC-3 (PC-3): 5.75; pIC50 A2780 (A2780): <5; pIC50 U87MG (U87MG): 5.19; GSK3B pIC50 (GSK3β (h)): 7.7; pIC50 MDA/MB231 (MDA/MB231): <5; pIC50 H1299 (H1299): 6.14
COc1ccc2cc1OCCCC(=O)NCCCNc1ncnc3c1C(=CN2)C(=O)N3 (mixture of isomers) [Compound 146] | – | – | – | – | – | CDK1 pIC50 (CDK1/CyclinB (h)): 7.21; PLK4 pIC50 (PLK4 (h)): 7.34; AuroraB pIC50 (AuroraB (h)): 7.24; pIC50 PC-3 (PC-3): 6.22; pIC50 A2780 (A2780): 5.83; pIC50 U87MG (U87MG): 5.80; GSK3B pIC50 (GSK3β (h)): 7.56; pIC50 HCT-116 (HCT-116): 6.15; pIC50 H1299 (H1299): 6.41
O=C1Nc2ncnc3c2/C1=C/Nc1ccc(Cl)c(c1)OCCCCCC(=O)N1CCN3CC1 [Compound 25] | > 10 µM | > 10 | – | – | – | IC50 (PC-3): > 10 µM; IC50 (U87MG): > 10 µM; IC50 (MDA/MB231): > 10 µM
CC(C)N1CCCCCCC(=O)N2CCN(CC2)c2ncnc3c2/C(=C/Nc2ccc(F)c(c2)C1)C(=O)N3 [Compound 29] | > 10 µM | > 10 | – | – | – | IC50 (PC-3): > 10 µM; IC50 (U87MG): > 10 µM; IC50 (HCT-116): > 10 µM; IC50 (MDA/MB231): > 10 µM
CN1CCCNc2ncnc3c2/C(=C/Nc2cccc(c2)OCCCCCCC1=O)C(=O)N3 [Compound 69] | 3.39 µM | > 10 | > 10 | 5.01 µM | 1.07 | IC50 (U87MG): > 10 µM; IC50 (HCT-116): > 10 µM; IC50 (H1299): > 10 µM
CN1CCCC(=O)N(C)CCNc2ncnc3c2/C(=C/Nc2ccc(N4CCOCC4)c(c2)C1)C(=O)N3 [Compound 94] | 5.13 µM | – | > 10 | > 10 µM | 1.05 | –
COc1cc2cc(c1OC)CN(C)CCCCC(=O)N(C)CCCNc1ncnc3c1/C(=C/N2)C(=O)N3 [Compound 95] | 2.69 µM | – | 1.15 | > 10 µM | 3.16 | –
COc1nc2c3c(n1)NC(=O)/C3=C\Nc1ccc(Cl)c(c1)OCCCCC(=O)N(C)CCCN2 [Compound 111] | – | 3.24 | – | > 10 µM | 3.09 | IC50 (PC-3): 6.46 µM; IC50 (U87MG): 2.69 µM; IC50 (HCT-116): 3.63 µM; IC50 (H1299): > 10 µM
CN1CCNc2ncnc3c2/C(=C/Nc2cc(cc(C(F)(F)F)c2)OCCCC1=O)C(=O)N3 [Compound 127] | > 10 µM | – | > 10 | > 10 µM | > 10 | –
